According to US20230256036A1, “SERPIN PRODUCTION” (SOCIETE DES PRODUITS NESTLE S.A., priority 2020, published 2023):

Key:
[1] = tested on: B. longum strain CNCM I-2618 (NCC 2705); experiment: Growth of B. longum NCC 2705 in Biolector on MRSc base without sugar plus HMO; format: cell-based, Bifidobacterium longum subsp longum; conditions: HMO 0.5 wt % in MRSc base without sugar, anaerobic, 37° C., 16 h
Experimental: (§1) B. longum strain CNCM I-2618 (NCC 2705) was grown in Biolector (growth conditions—anaerobic, 37° C.) in MRS+5 mM L-cysteine (MRSc) base without sugar, to which different commercially available Human Milk Oligosaccharides (HMOs) were added at a concentration of 0.5 wt %.
(§2) 48-well microtiter plate with pH sensor and dissolved oxygen (DO) sensor were used to culture the strains in Biolector (m2p-labs Aachen, Germany). It was continuously shaken to prevent bacteria aggregation for 16 h. Cultures were harvested by centrifugation and supernatant was removed. Pellet was resuspended in PBS supplemented with halt protease inhibitor (Sigma) and lysed using glassbeads. Lysate containing both soluble and insoluble material was then collected. Total protein content was measured using Pierce BCA kit (Thermofisher) and serpin protein concentration was determined using ELISA.

[2] = tested on: serpin protein in B. longum NCC 2705; experiment: Serpin protein level by ELISA in B. longum NCC 2705 grown on HMOs; format: cell-based, Bifidobacterium longum subsp longum; conditions: HMO 0.5 wt %, 16 h, FIG. 1
Experimental: as §1, §2

[3] = tested on: B. longum subsp. longum strains; experiment: Growth of B. longum subsp. longum strains on LNT as sole carbohydrate source; format: cell-based, Bifidobacterium longum subsp longum; conditions: 0.5% LNT in MRSc base without sugar, 16 h, all tested B. longum subsp. longum strains
Experimental: as §1, §2
The serpin encoding gene and its surrounding is highly conserved within the B. longum subsp. longum species. Strains of B. longum subsp. longum were selected to represent the entire span of the genetic phylogenetic tree (Table 2). All strains were cultured in Biolector (according to example 1) in a MRSc base without sugar, to which 0.5% glucose or 0.5% of LNT was added. Cultures were grown for 16 h and harvested. Obtained pellets were further analyzed for total and serpin protein content (see example 1).

[4] = tested on: serpin protein in B. longum subsp. longum strains; experiment: Serpin protein level by ELISA in B. longum subsp. longum strains grown on glucose or LNT; format: cell-based, Bifidobacterium longum subsp longum; conditions: 0.5% LNT vs 0.5% glucose, 16 h, all tested strains, FIG. 2
Experimental: 48-well microtiter plate with pH sensor and dissolved oxygen (DO) sensor were used to culture the strains in Biolector [MUT]-labs Aachen, Germany). It was continuously shaken to prevent bacteria aggregation for 16 h. Cultures were harvested by centrifugation and supernatant was removed. Pellet was resuspended in PBS supplemented with halt protease inhibitor (Sigma) and lysed using glassbeads. Lysate containing both soluble and insoluble material was then collected. Total protein content was measured using Pierce BCA kit (Thermofisher) and serpin protein concentration was determined using ELISA. […] All strains were cultured in Biolector (according to example 1) in a MRSc base without sugar, to which 0.5% glucose or 0.5% of LNT was added. Cultures were grown for 16 h and harvested. Obtained pellets were further analyzed for total and serpin protein content (see example 1).

[5] = tested on: serpin in Bifidobacterium longum subsp longum; experiment: Serpin induction by LNT in culture medium containing glucose; format: cell-based; conditions: only when the glucose is present at levels allowing its depletion during fermentation
Text: LNT may be added to a conventional culture medium comprising up to 8 wt %, preferably up to 6 wt %, for example up to 4 wt %, of another sugar suitable to sustain B. longum growth, such as, but not limited to, glucose. […] Preferably the culture medium at the end of the fermentation contains less than 0.4 wt % glucose, such as from 0 wt % to 0.3 wt % glucose, for example from 0.02 wt % to 0.4 wt %, or from about 0.05 wt % to about 0.3 wt %. Conventional culture mediums suitable for growth of B. longum are well known to the person skilled in the art.

CC(=O)N[C@H]1[C@H](O[C@H]2[C@@H](O)[C@@H](CO)O[C@@H](O[C@H]3[C@H](O)[C@@H](O)C(O)O[C@@H]3CO)[C@@H]2O)O[C@H](CO)[C@@H](O)[C@@H]1O[C@@H]1O[C@H](CO)[C@H](O)[C@H](O)[C@H]1O (some centres unmarked) [LNT, Lacto-N-tetraose]
support of growth of B. longum NCC 2705 [1]: the only one supporting the growth | levels of serpin protein in B. longum NCC 2705 [2]: significantly increase | growth on LNT as sole carbohydrate source [3]: able to grow | serpin protein levels in B. longum subsp. longum strains [4]: increased | induction of serpin production when glucose is present [5]: can induce production of serpin
